Reference: patent US10203322B2, “Method for identifying subjects with increased risk of ST-segment elevation myocardial infarction (STEMI) and identifying subjects likely to respond to particular treatments” (Vanderbilt University, priority 2017, dated 2019)

Experiments:
[1] = tested on: platelets (platelet-rich plasma); assay: Platelet phenotyping: platelet aggregation in platelet-rich plasma by light transmission aggregometry, U46,619 with or without PGE2; assay type: cell-based, human; settings: PGE2 100 nmol/L preincubated with PRP, sub-maximal U46,619, aggregation recorded 6 min, n=86 (FIG. 1)
Procedure: Measurements of platelet aggregation in PRP were made using light transmission aggregometry using a Chrono-Log lumi-aggregometer (Model 460VS). The aggregometer was calibrated for each sample to read 0-10% light transmission for PRP and 90-100% light transmission for PPP. Aliquots of PRP were placed in siliconized glass cuvettes containing Teflon-coated stir bars and incubated for 2 minutes at 37° C. PRP was preincubated with or without 100 nM PGE2 for 10-20 s before adding U46,619 at various concentrations. Samples were stirred at 800 rpm throughout a 6 minute aggregation run. Experiments were completed within 2 hours of phlebotomy. Percentage aggregation was recorded with Aggrolink software (Chrono-Log) and exported to GraphPad Prism for analysis. For each subject, multiple doses of U46,619 agonist were used to construct a dose response curve according to methods described previously; each U46,619 dose was tested with and without PGE2.
In order to describe the phenotypic observation in a quantitative rather than just qualitative format a continuous variable was constructed as follows: for each dose of U46,619, the aggregation value obtained at the end of the 6 min run in the presence of PGE2 was subtracted from the value obtained without PGE2. The largest difference was reported as the maximum PGE2 effect (maximum difference). […]

[2] = tested on: platelets from an individual with the low threshold phenotype; settings: platelets of low threshold (potentiating) phenotype treated with the EP3 antagonist; ref [6], FIG. 2; cited from earlier work

Structure (SMILES) | individuals in whom PGE2 decreases the threshold of platelet activation by the thromboxane agonist U46,619 (inhibitory phenotype) [1] | individuals in whom PGE2 increases the threshold of platelet activation by the thromboxane agonist U46,619 (potentiating phenotype) [1] | shift of PGE2 response phenotype [2]
CCCCC[C@H](O)/C=C/[C@H]1[C@H](O)CC(=O)[C@@H]1C/C=C\CCCC(=O)O [PGE2, Prostaglandin E2] | 56 % of individuals | 44 % of individuals | –
Cc1cn(Cc2ccc(Cl)cc2Cl)c2c(/C=C/C(=O)NS(=O)(=O)c3cc(Cl)c(Cl)s3)cc(F)cc12 [DG-041] | – | – | the phenotype shifts to high threshold
